Experimental findings from patent US20230251203A1, “METHOD FOR EVALUATING ADVERSE REACTION OF SESQUITERPENOIDS IN ZEDOARY TURMERIC OIL” (BEIJING FRIENDSHIP HOSPITAL, CAPITAL MEDICAL UNIVERSITY, priority 2021, published 2023) are described below.

SMILES strings stand for the structures.

In one series the test system is SD male rats. The experiment in a line: Influences of β-elemene on blood gas when causing dyspnea of rats (abdominal aortic blood, blood-gas analyzer). Conditions: BE 1.5 mg/mL. Format: in vivo, rat. The protocol: Preparation of a BE solution: BE reference substances were precisely weighed and dissolved by 8.8% Tween 80 solution and prepared into a BE solution having a concentration of 1.5 mg/mL.
12 pieces of SPF-grade SD male rats (6 weeks of age, weight: 200±25 g) were taken; and these rats were purchased from Beijing Vital River Laboratory Animal Technology Co., Ltd, production license number: SCXK (J.) 2016-0006.Animal experiments involved in the research process were approved by Ethics Committee. The feeding conditions of the experimental rats are as follows: standard illumination-dark period is 12 h, temperature is 22±1° C., and relative humidity is 60±5%.
The rats were randomly divided into 2 groups, 6 pieces each group. The rats were adaptively fed with common fodders for one week. Then the rats were subjected to overnight fasting (12 h), and then intraperitoneally injected with chloral hydrate (10 mg/mL, 4 mL/kg) for anesthetization. After anesthetization, the two groups were respectively injected with BE and normal saline via caudal vein with an administration volume of 6 mL/kg.
After administration, abdominal aortic blood was taken and immediately analyzed with a blood-gas analyzer.

In series [1] the target is T1, hemoglobin (Hb) (Homo sapiens, UniProt P68871+P69905).
T1 construct: purchased Sigma H7379
T1 sequence (P69905 2-142 limits assumed): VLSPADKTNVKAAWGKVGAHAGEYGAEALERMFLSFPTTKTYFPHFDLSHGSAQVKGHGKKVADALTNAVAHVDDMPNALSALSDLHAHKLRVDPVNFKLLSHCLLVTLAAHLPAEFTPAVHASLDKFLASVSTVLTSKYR
T1 sequence (P68871 2-147 limits assumed): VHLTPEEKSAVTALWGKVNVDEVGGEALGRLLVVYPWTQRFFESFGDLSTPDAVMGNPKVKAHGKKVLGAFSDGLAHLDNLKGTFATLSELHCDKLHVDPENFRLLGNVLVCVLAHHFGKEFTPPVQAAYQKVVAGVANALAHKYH
Briefly: Surface plasmon resonance (SPR) interaction between β-elemene and hemoglobin. The format is binding. Conditions: Hb coupled on chip, BE 0.78-100.00 μM, FIGS. 8-9. Here is the method: Surface plasmon resonance (SPR) technology was used to verify the interaction between β-elemene and hemoglobin. […] It is generally acknowledged that KD of binding protein to small molecules has an acceptable scope of 10^−4-10^−6M.
(1) Preparation of a Hb solution: a proper amount of Hb was weighed precisely and prepared into a solution having a concentration of 1 mg/mL with ultrapure water, then 20-fold diluted by pH 4.5 acetic acid for further use;
(2) PBS-P+10× was prepared into PBS-P+2.1× with ultrapure water, then a proper amount of DMSO was taken and prepared into PBS 2× containing 5% DMSO+0.1% Tween 20, and filtered for further use;
(3) A proper amount of BE reference substances were weighed precisely and dissolved into DMSO to be prepared into 10 mM solution, then the solution was diluted with PBS-P+2.1× to a reference substance solution containing 5% DMSO; and then the reference substance solution was diluted successively by 2× PBS-P+ to 100.00 μM, 50.00 μM, 25.00 μM, 12.50 μM, 6.25 μM, 3.12 μM. 1.56 μM and 0.78 μM and vortexed for 1 min, and then filtered by 0.22 μm filter membrane for further use.
(1) Chip activation: carboxyl (channels 1 and 2) on a chip was activated by EDC/NHS;
(2) the channel 2 was selected and coupled to a certain amount of Hb;
(3) the activated carboxyl not coupled to proteins on the chip was blocked by ethanolamine; […]
A general note: Surface plasmon resonance follows binding to a sensor surface in real time, without labels.

The target of series [2] is T1, hemoglobin (Hb). The experiment in a line: UV absorbance of hemoglobin after interaction with sample (r value, dyspnea risk evaluation). Here is the method:
Preparation of Hb solution: a proper amount of Hb was precisely weighed and dissolved by normal saline (ultrasonic treatment for 30 s), and prepared into a solution having a concentration of 2 mg/mL.
Preparation of a BE solution: BE reference substance is precisely weighed and dissolved by 8.8% Tween 80 solution and prepared into a solution having a concentration of 1.5 mg/mL.
100 μL Hb solution was added to wells of a 96-well plate, and 100 μL BE sample solution, 100 μL 8.8% Tween 80 solution or 100 μL normal saline (as blank control) were successively added to the wells added with Hb solution. Each sample was repeated with 3 wells; then the microwell plate was covered, and the mixed solution was oscillated for 5 s in an oscillator to be mixed well, standing for 10 min at 25° C. A microplate reader was used for detection, and detection conditions were as follows: spectrum scanning was performed at 37° C. and 230-400 nm with a step size of 5 nm. […]
Where, OD is an absorbance value of a to-be-detected sample containing sesquiterpenoids in zedoary turmeric oil at a certain concentration at 280 nm after interacting with Hb; ODHb is an absorbance value of normal saline as a blank control at a wavelength of 280 nm after interacting with Hb; r is a ratio of OD to ODHb.

Another series addresses T2, hemoglobin (Hb) α-helix (Homo sapiens, UniProt P68871+P69905).
T2 construct: purchased Sigma H7379
Briefly: Circular dichroism (CD) influences of β-elemene on Hb structure. The note with it: Hb 5 μM, BE 1.00-6.25 μM, 25° C.; effect increases with BE concentration; FIG. 10. The protocol: A circular dichroism spectrum technology (CD) was used to determine the influences of β-elemene on Hb structure.
Hb mainly presents α-helix at 200-250 nm. If the α-helix structure is changed, so do the shape of CD curve at 200-250 nm. The α-helix content of Hb at 222 nm may be calculated according to the equation (1): […]
The mean residue ellipticity (MRE) (degcm^2/dmol) is calculated according to the equation (2): […]
where, Cp is molar concentration (mM) of Hb; n is the number of amino acid residues; l is optical path (mm).
Preparation of a PBS solution: a proper amount of PBS buffer solution was taken and added a small amount of Tween 80, then prepared into a PBS solution containing 0.05% Tween 80.
Preparation of a Hb solution: a proper amount of Hb was weighed precisely and added a proper amount of PBS containing 0.05% Tween 80, then prepared into Hb having a concentration of 30 μM for further use. […]
(2) each concentration of sample was placed into a quartz sample pool from small to large (during solution exchange, the sample pool was cleaned by PBS and rinsed with the to-be-detected solution), then the sample pool was put to the sample chamber for detection in turn, and each sample was screened by spectrum for 3 times; […]
(Circular dichroism is the unequal absorption of left and right circularly polarised light.)

T2 sequence (P69905 2-142 limits assumed): as the sequence (P69905 2-142 limits assumed) above
T2 sequence (P68871 2-147 limits assumed): as the sequence (P68871 2-147 limits assumed) above

For `C=C[C@]1(C)CC[C@@H](C(=C)C)C[C@H]1C(=C)C` [BE, (1S, 2S, 4R)-1-vinyl-methyl-2,4-di(1-methylvinyl) cyclohexane], the “partial pressure of arterial oxygen” value in the series on SD male rats (6 mL/kg via caudal vein vs normal saline, FIG. 2) is “significantly decrease”. The “arterial partial pressure of carbon dioxide” value with SD male rats (6 mL/kg via caudal vein vs normal saline, FIG. 3) was “significantly decreases”. In the series on SD male rats (6 mL/kg via caudal vein vs normal saline, FIG. 4), the “arterial blood pH” value is “no significant change”. The arterial oxygen saturation result in the series with SD male rats (6 mL/kg via caudal vein vs normal saline, FIG. 5) is on record as “significantly decrease”. In addition, in the series on SD male rats (6 mL/kg via caudal vein vs normal saline, FIG. 6), the total hemoglobin result is on record as “significantly increases”. In the series on SD male rats (6 mL/kg via caudal vein vs normal saline, FIG. 7), the oxyhemoglobin entry is reported as “significantly decreases”. Further, in the series with SD male rats (6 mL/kg via caudal vein, recovery after stopping administration), the “observed symptoms after administration” value was “suffered dyspnea symptoms”. Further, binding on hemoglobin (Hb) [1] was put at a Kd of 5.84 µM. Besides, the “Hb absorbance within 260-300 nm” value at hemoglobin (Hb) [2] (1.5 mg/mL BE solution + 2 mg/mL Hb, 100 μL each, FIG. 11) is recorded as “significantly increasing”. Further, the “r (ratio of OD to ODHb at 280 nm)” value on hemoglobin (Hb) [2] (1.5 mg/mL BE solution, r>1.5 indicates high risk of dyspnea) is recorded as “≈ 1.8”. The “effect on Hb α-helix (CD curve at 200-250 nm)” value on hemoglobin (Hb) α-helix is given as “makes Hb α-helix performing helix removal”.
